Test results: patent US12053451B2, “Arginase inhibitors and their therapeutic applications” (OncoArendi Therapeutics S.A., priority 2016, dated 2024)
Structures can show the parent of a compound that is named as a salt.

Key:
[1] = molecular target: T1, recombinant human arginase 1 (Homo sapiens, UniProt P05089); experiment: Human arginase activity assay (urea measurement), arginase 1; format: biochemical; conditions: recombinant human arginase 1, pH 7.4, 37° C., 60 min; * = value for the most potent diastereoisomer or the mixture of diastereoisomers; read-out: Activity Class (ARG I)
T1 construct: purchased Biolegend 552502
T1 sequence (P05089 1-322): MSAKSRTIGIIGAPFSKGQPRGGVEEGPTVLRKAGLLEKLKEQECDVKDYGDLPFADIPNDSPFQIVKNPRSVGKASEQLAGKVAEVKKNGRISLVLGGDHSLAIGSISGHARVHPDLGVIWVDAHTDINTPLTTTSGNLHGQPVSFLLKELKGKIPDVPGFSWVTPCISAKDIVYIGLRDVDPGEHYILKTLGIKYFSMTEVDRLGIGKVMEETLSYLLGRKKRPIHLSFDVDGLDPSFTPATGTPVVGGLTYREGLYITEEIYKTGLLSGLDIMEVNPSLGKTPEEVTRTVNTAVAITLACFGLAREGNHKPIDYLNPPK
Summary of the method: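 Arginase activity was measured as urea formed from L-arginine over 60 min at 37 °C. Reaction stopped with oPA/NED acidic reagent and absorbance read at 530 nm after 20 min colour development. Values were background-subtracted and normalised to no-compound activity, and IC50 was derived from percent-inhibition concentration-response regression.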

[2] = molecular target: T2, recombinant human arginase 2 (Homo sapiens, UniProt P78540); experiment: Human arginase activity assay (urea measurement), arginase 2; format: biochemical; conditions: for selected examples class estimated from % of inhibition at 1 μM and 100 μM, * = most potent diastereoisomer or mixture of diastereoisomers, read-out: Activity Class (ARG II)
T2 construct: made in house; host or cells: CHO
T2 sequence (P78540 23-354): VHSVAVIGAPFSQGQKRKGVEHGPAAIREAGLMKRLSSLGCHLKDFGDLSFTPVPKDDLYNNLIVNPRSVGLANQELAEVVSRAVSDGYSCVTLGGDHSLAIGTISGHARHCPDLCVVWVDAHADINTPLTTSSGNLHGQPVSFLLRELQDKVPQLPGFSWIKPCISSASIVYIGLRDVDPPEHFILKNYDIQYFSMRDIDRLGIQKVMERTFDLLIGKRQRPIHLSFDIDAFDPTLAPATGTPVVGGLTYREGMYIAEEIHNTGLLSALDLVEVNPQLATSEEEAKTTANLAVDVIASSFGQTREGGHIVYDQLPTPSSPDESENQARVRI
Summary of the method: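 Recombinant CHO-expressed human arginase 2 converted 20 mM L-arginine with 150 μM MnCl2 in phosphate buffer pH 7.4 for 60 min at 37 °C. Urea was measured colorimetrically at 530 nm after background subtraction, and IC50 fitted. Some compounds were classed by % inhibition at 1 μM and 100 μM.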

[3] = molecular target: T3, intracellular arginase in macrophages isolated from murine bone marrow (BMDM) (Mus musculus, UniProt Q61176); experiment: Cell-based assay: intracellular arginase in bone marrow derived macrophages (BMDM), urea level; parameters: species or system Balb/c mice; conditions: murine BMDM with M-CSF and IL-4, urea measured 24 hours after compound; * = most potent diastereoisomer or mixture of diastereoisomers; read-out: Activity Class (BMDM)
T3 construct: endogenous in cells; host or cells: primary bone marrow derived macrophages from Balb/c mice, M-CSF and IL-4 treated
T3 sequence (Q61176 1-323): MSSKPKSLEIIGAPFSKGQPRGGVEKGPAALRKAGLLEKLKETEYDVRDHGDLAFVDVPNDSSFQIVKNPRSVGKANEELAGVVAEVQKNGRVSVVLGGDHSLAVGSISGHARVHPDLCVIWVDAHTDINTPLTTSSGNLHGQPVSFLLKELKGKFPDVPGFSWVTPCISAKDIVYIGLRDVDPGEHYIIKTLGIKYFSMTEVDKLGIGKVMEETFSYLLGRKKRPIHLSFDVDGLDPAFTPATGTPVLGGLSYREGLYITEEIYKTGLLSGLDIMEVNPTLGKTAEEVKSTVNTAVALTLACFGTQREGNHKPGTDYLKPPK
Experimental: Efficacy of Selected Examples Towards Intracellular Arginase in Macrophages Isolated from Murine Bone Marrow—Bone Marrow Derived Macrophages (BMDM)
Materials & Methods: The assay was performed according to modified literature protocol modification (Pineda-Torra I et al., Methods Mol Biol. 2015; 1339:101-9. Mia S et al. Scand J Immunol. 2014 May; 79(5):305-14). The femurs and tibias were isolated from Balb/c mice. Bones were cleaned from all attached tissues by using sterile swab without affecting the bone structure. Bones were sterilized by immersion in 70% ethanol for 5 min and then rinsed in PBS. The sides of the bones were cut off and flush with cold sterile PBS by using 26-G needle S into a 50 mL sterile tube with a cell strainer (Falcon™, Cat. No. U00149), until bone cavity appeared white. Then the cells were centrifuged (5 min at 500×G, 4° C.), washed twice with PBS and counted. Cells were plated in Petri dish in density of 1×10^6/mL and cultured in DMEM (Gibco, Cat. No. 31331-029) with 10% FBS, 1% pen-strep and 50 ng/mL M-CSF (PeproTech, Cat. No. 315-02), (37° C., 5% CO2). After five days cells were subcultured into P96 plate (BD, Cat. No. 353072) in density of 64 000 cells/well in medium supplemented with 50 ng/mL M-CSF and 20 ng/mL IL-4 (Biomibo Cat. No. 214-1). One day later exemplary compounds (dissolved in PBS) were added in several different concentrations and 24 hours later the level of urea was measured in each well (Jung D et al., Clin Chem. 1975, 21(8):1136-40). The concentration of urea in the absence of any compound was considered as the maximum. The absorbance of cell culture media (background) was subtracted from all the values.
For selected examples the activity class for ARG2 was estimated based on % of inhibition for 1 μM and 100 μM concentration of tested compounds.

Row | SMILES | IC50 [1] | IC50 [2] | IC50 [3]
1 | NC1CC(CCB(O)O)CC1(N)C(=O)O (stereo not drawn) [Example 62, 1,2-diamino-4-(2-boronoethyl)cyclopentanecarboxylic acid dihydrochloride] | 1000 to 10000 nM | 100 to 1000 nM | 10000 to 100000 nM
2 | CN(C)C[C@@H]1CC[C@@H](CCB(O)O)C[C@]1(N)C(=O)O [Example 38, (1R,2S,5R)-1-amino-5-(2-boronoethyl)-2-((dimethylamino)methyl)cyclohexanecarboxylic acid] | 1 to 100 nM | 1 to 100 nM | 1 to 100 nM
3 | CN(C)C[C@@H]1CC[C@@H](CCB2O[C@H]3C[C@H]4C[C@H](C4(C)C)[C@@]3(C)O2)C[C@]1(N)C(=O)O [Example 44, (1R,2S,5R)-1-amino-2-((dimethylamino)methyl)-5-(2-((3aR,4R,6R,7aS)-3a,5,5-trimethylhexahydro-4,6-methanobenzo[d][1,3,2]dioxaborol-2-yl)ethyl)cyclohexane-1-carboxylic acid dihydrochloride] | 1 to 100 nM | 1 to 100 nM | 1 to 100 nM
4 | CN(C)C[C@H]1CC[C@@H](CCB(O)O)C[C@]1(N)C(=O)O (racemic) [Example 18, rac-(1R,2R,5R)-1-Amino-5-(2-boronoethyl)-2-((dimethylamino)methyl)-cyclohexane-1-carboxylic acid dihydrochloride] | 100 to 1000 nM | 1000 to 10000 nM | 100 to 1000 nM
5 | NC(CCCCB(O)O)(CCNCCCc1ccc(Cl)cc1Cl)C(=O)O (stereo not drawn) [Comparative example 2, reference compound] | 1 to 100 nM | 100 to 1000 nM | 1000 to 10000 nM
6 | NC1CC(CCB(O)O)CC(N)(C(=O)O)C1 (stereo not drawn) [Example 56, 1,3-diamino-5-(2-boronoethyl)cyclohexanecarboxylic acid dihydrochloride] | 1000 to 10000 nM | 100 to 1000 nM | > 100000 nM
7 | NC1(C(=O)O)C[C@H](CCB(O)O)CCC1CCN1CCCC1 (stereo partly drawn) [Example 46, (5R)-1-amino-5-(2-boronoethyl)-2-(2-(pyrrolidin-1-yl)ethyl)cyclohexanecarboxylic acid dihydrochloride] | 1 to 100 nM | 1 to 100 nM | 100 to 1000 nM
8 | N[C@]1(C(=O)O)C[C@H](CCB(O)O)CC[C@H]1CN1CCCC1 [Example 71, (1R,2S,5R)-1-amino-5-(2-boronoethyl)-2-(pyrrolidin-1-ylmethyl)cyclohexane-1-carboxylic acid] | 1 to 100 nM | 1 to 100 nM | 1 to 100 nM
9 | CN(C)C1CC(CCB(O)O)CC(N)(C(=O)O)C1 (stereo not drawn) [Example 65, 1-amino-3-(2-boronoethyl)-5-(dimethylamino)cyclohexane-1-carboxylic acid dihydrochloride] | 10000 to 100000 nM | 10000 to 100000 nM | > 100000 nM

The next lines start with the values.

Row | IC50 [1] | IC50 [2] | IC50 [3] | SMILES
10 | 1 to 100 nM | 100 to 1000 nM | 10000 to 100000 nM | NCC1CCC(CCB(O)O)CC1(N)C(=O)O (stereo not drawn) [Example 24, 1-Amino-2-(aminomethyl)-5-(2-boronoethyl)cyclohexane-1-carboxylic acid]
11 | 100 to 1000 nM | 100 to 1000 nM | 10000 to 100000 nM | NC1CCC(CCB(O)O)CC1(N)C(=O)O (single isomer, unassigned) [Example 48, 1,2-diamino-5-(2-boronoethyl)cyclohexanecarboxylic acid dihydrochloride]
12 | 100 to 1000 nM | 100 to 1000 nM | 10000 to 100000 nM | CC1(O)CCC(CCB(O)O)CC1(N)C(=O)O (stereo not drawn) [Example 50, 1-amino-5-(2-boronoethyl)-2-hydroxy-2-methylcyclohexanecarboxylic acid hydrochloride]
13 | 1 to 100 nM | 100 to 1000 nM | 1 to 100 nM | CC1(C)[C@H]2C[C@@H]3OB(CC[C@@H]4CC[C@@H](CN5CCCC5)[C@@](N)(C(=O)O)C4)O[C@]3(C)[C@@H]1C2 [Example 45, (1R,2S,5R)-1-amino-2-(pyrrolidin-1-ylmethyl)-5-(2-((3aR,4R,6R,7aS)-3a,5,5-trimethylhexahydro-4,6-methanobenzo[d][1,3,2]dioxaborol-2-yl)ethyl)cyclohexanecarboxylic acid dihydrochloride]
